“Also recorded” adds a separate entry of the source.

Data set [1] relates to aMCI subjects. The data set can be described thus: Explicit 3-alternative forced choice task (lure stimuli). The data set is classed as in vivo, human. As for the experimental part: As described above, the drug treatment period is the two weeks preceding Visit 1 or 2 (with the two week period preceding the other Visit being the placebo phase). […]
The activity of the subject's medial temporal lobe is measured by functional MRI during the subject's participation in an explicit 3-alternative forced choice task, where participants view novel, repeated and similar (“lure”) stimuli. The Psychophysics Toolbox extensions in Matlab 7.0 (The MathWorks, Natick, Mass.) is used for stimulus presentation and behavioral data collection. Stimuli are color photographs of common objects. Each participant undergoes a series of testing runs during the functional imaging sessions, each run consisting of a mix of three types of image pairs: similar pairs, identical pairs and unrelated foils. These image pairs are fully randomized throughout the run and presented individually as a series of images (see FIG. 10A). Participants are instructed to make a judgment as to whether each object seen is new, old or similar. Of critical interest are the participants' responses when presented with the second of the pair of similar objects (the “lure”; see FIG. 10B). The correct identification by the subject of lure stimuli as “similar,” provides behavioral evidence of pattern separation, i.e., the separation of similar experiences into distinct non-overlapping representations. […]
As described above, the drug treatment period is the two weeks preceding Visit 1 or 2 (with the two week period preceding the other Visit being the placebo phase). […] For the subjects receiving the 62.5 mg BID drug treatment, a quarter of a scored 250 mg tablet of levetiracetam is used to achieve a dose of 62.5 twice a day, i.e., 125 mg/day which is approximately 1.5 mg/kg/day.
The activity of the subject's medial temporal lobe is measured by functional MRI during the subject's participation in an explicit 3-alternative forced choice task, where participants view novel, repeated and similar (“lure”) stimuli. […]

Data set [2] has as its system aMCI subjects. The data set can be described thus: fMRI activity of medial temporal lobe subregions during memory judgments. The data set is classed as in vivo, human.
Data set [3] addresses synaptic vesicle protein 2A (SV2A) (Homo sapiens, UniProt Q7L0J3). The following applies: specific site in the CNS; cited from earlier work.
Data set [4] deals with somatostatin in DG hilus. The data set can be described thus: Immunohistochemistry of SOM-immunoreactive hilar neurons after chronic levetiracetam. The data set is classed as in vivo, rat. To be noted: levetiracetam 10 mg/kg/day, osmotic minipumps, four weeks, aged-impaired rats; AI-LEV vs AI-VEH p<0.01.
Data set [5] concerns reelin in Entorhinal Cortex (EC2). Nature of the data set: In situ hybridization of reelin mRNA after chronic levetiracetam. The data set is classed as in vivo, rat. To be noted: levetiracetam 10 mg/kg/day, osmotic minipumps, four weeks (28 days), aged-impaired rats; vs AI-VEH p=0.033.
The conditions of data set [6]: cited from earlier work.

synaptic vesicle protein 2A (SV2A), sequence (Q7L0J3 whole entry, species assumed): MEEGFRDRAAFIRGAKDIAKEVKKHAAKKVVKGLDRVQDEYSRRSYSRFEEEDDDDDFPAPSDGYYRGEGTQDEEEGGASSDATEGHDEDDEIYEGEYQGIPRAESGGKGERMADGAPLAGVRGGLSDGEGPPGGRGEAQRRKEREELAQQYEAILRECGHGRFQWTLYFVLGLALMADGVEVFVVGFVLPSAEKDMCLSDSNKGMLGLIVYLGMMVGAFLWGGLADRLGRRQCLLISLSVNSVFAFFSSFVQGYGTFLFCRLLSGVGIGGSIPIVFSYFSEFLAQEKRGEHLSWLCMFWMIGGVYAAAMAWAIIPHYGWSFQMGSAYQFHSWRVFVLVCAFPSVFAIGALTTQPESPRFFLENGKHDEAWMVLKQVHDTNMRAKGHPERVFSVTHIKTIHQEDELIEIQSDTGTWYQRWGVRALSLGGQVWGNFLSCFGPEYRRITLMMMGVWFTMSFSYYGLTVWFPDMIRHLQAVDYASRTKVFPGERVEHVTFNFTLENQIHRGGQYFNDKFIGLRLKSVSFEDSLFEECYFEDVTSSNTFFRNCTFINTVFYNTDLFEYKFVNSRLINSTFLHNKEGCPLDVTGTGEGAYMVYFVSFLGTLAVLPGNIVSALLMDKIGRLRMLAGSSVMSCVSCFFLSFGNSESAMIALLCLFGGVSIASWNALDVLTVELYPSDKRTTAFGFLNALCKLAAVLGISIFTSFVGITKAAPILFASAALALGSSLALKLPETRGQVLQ

Turning to `CC[C@@H](C(N)=O)N1CCCC1=O` [levetiracetam, (2S)-2-(2-oxopyrrolidin-1-yl)butanamide], the “performance in the memory task (similar vs old responses to lures)” value in data set [1] (levetiracetam 62.5 mg BID for two weeks vs placebo, p=0.041) is on record as “improves significantly”; in data set [1] (levetiracetam 125 mg twice a day for two weeks vs placebo, p=0.039) it was “improves significantly”; in data set [1] (levetiracetam 250 mg BID for two weeks vs placebo, p=0.2396), “does not significantly improve”. Moreover, the “DG/CA3 hyperactivity during memory judgments” value in data set [2] (levetiracetam 62.5 mg BID for two weeks, N=20) is listed as “does not significantly reduce”; in data set [2] (levetiracetam 250 mg BID for two weeks, N=17), “does not significantly reduce”. Moreover, the “entorhinal cortex (EC) activity during memory judgments” value in data set [2] (levetiracetam 125 mg twice a day for two weeks vs placebo) is “increases EC activity”. Besides, the “DG/CA3 activity during lure stimuli correctly identified as similar” value in data set [2] (levetiracetam 125 mg twice a day for two weeks vs placebo, p=0.037) is “reduces DG/CA3 hyper-activity”. Besides, the “binding to SV2A” value in data set [3] is “binds”. In addition, the “levels of somatostatin (SOM-immunoreactive hilar neurons) in DG hilus” value in data set [4] is “restores the levels of somatostatin; also recorded: restores sematostatin”. Further, the “reelin (mRNA expression) in entorhinal cortex” value in data set [5] was “restores the levels of reelin; also recorded: significantly increased the expression of reelin”. In addition, the absorption result in data set [6] (after oral administration) was “rapidly and almost completely absorbed”. The “Plasma half-life expected in elderly” value in data set [6] (elderly, due to decreased renal function) is 9 to 10 h. Besides, in data set [6] (following oral administration), the “time of peak plasma concentrations” value is “about 1 hour”. Besides, in data set [6] (in vivo), the Plasma half-life entry is “approximately 7±1 hour”. The “time to steady state” value in data set [6] (multiple twice-daily dosing) is 2 days. Also, the “effect of food on bioavailability” value in data set [6] (oral) is reported as “not affected by food”.

The values are drawn from US10806717B2, “Methods and compositions for improving cognitive function” (The Johns Hopkins University, priority 2013, dated 2020).
